Assay: wn = mass fraction of the nth substance listed
Conditions: 101 kPa, Liquid; for mass density: Vibrating tube method; for viscosity: Concentric cylinders viscometry

CC(O)CNCC(C)O (stereo not given) [N-(2-hydroxypropyl)-2-hydroxy-1-propanamine] + O
Conditions | mass density, w1 = 0.05 [kg/m3] | mass density, w1 = 0.1 [kg/m3] | mass density, w1 = 0.15 [kg/m3] | mass density, w1 = 0.2 [kg/m3] | mass density, w1 = 0.25 [kg/m3] | viscosity, w1 = 0.05 [mPa·s] | viscosity, w1 = 0.1 [mPa·s] | viscosity, w1 = 0.15 [mPa·s] | viscosity, w1 = 0.2 [mPa·s] | viscosity, w1 = 0.25 [mPa·s]
308.15 K | 997.454 | 1000.19 | 1003.35 | 1006.41 | 1009.69 | – | – | – | – | –
313.15 K | 995.576 | 998.214 | 1001.24 | 1004.14 | 1007.23 | 0.8189 | 0.9814 | 1.224 | 1.485 | 1.871
318.15 K | 993.508 | 996.055 | 998.951 | 1001.71 | 1004.62 | 0.7442 | 0.8856 | 1.095 | 1.313 | 1.633
323.15 K | 991.263 | 993.722 | 996.497 | 999.106 | 1001.86 | 0.6884 | 0.8047 | 0.9924 | 1.171 | 1.438
328.15 K | 988.852 | 991.224 | 993.882 | 996.358 | 998.953 | 0.6407 | 0.7357 | 0.9053 | 1.052 | 1.278
333.15 K | 986.277 | 988.56 | 991.114 | 993.463 | 995.91 | 0.5833 | 0.6793 | 0.8324 | 0.9512 | 1.145
338.15 K | 983.349 | 985.762 | 988.199 | 990.404 | 992.735 | 0.5507 | 0.6341 | 0.7693 | 0.8643 | 1.032
343.15 K | 980.387 | 982.81 | 985.138 | 987.241 | 989.434 | 0.5267 | 0.6006 | 0.725 | 0.8146 | 0.9579

Source: the NIST ThermoML archive (doi:10.1021/je300938w)
